Experimental findings from patent US5116845A (priority 1990, dated 1992) are described below.

Series [1] has as its system Moser and HCT-116 cells. The following applies: versus murine B16-F10.
Series [2] has as its system murine and human tumor cell lines. Put plainly: In vitro cytotoxicity.
For series [3], the system named is P388 leukemia. Put plainly: Antitumor activity against P388 leukemia (ip). Type of series: in vivo, mice. The following applies: maximum over the doses.
Series [4] concerns P388/VCR. The experiment in a line: In vitro cytotoxicity (viable cell count).
Series [5] can be described thus: Solubility. It counts as physicochemical.
Series [6] concerns Gram-negative organisms. Type of series: cell-based.
Series [7] relates to Gram-positive aerobic bacteria. Type of series: cell-based.
In series [8] the test system is mice. The experiment in a line: Acute toxicity, intramuscular. Type of series: in vivo. The following applies: 5 mg/kg intramuscular.

`CO[C@@]12[C@H](COC(N)=O)C3=C(C(=O)C(C)=C(N)C3=O)N1C[C@@H]1N[C@@H]12` [Mitomycin C]: the “resistance of Moser and HCT-116 relative to B16-F10” value in series [1] is on record as “slightly more resistant”.
On to `COC1=C(C(=O)O)C(C)C23OC24c2cc(O)c5c(c2NC3C#CC=CC#CC14)C(=O)c1c(O)ccc(O)c1C5=O` (centres unmarked) [BU-3420T], for which the cytotoxicity entry in series [2] is given as “potent cytotoxicity”. In addition, the “maximum T/C” value in series [3] turned out to be 135%. In addition, in series [4], the “cytotoxicity against VCR-resistant versus sensitive P388 cells” value is listed as “same cytotoxicities”. Besides, the solubility result is recorded as “slightly soluble” in series [5] (chloroform); “soluble” in series [5] (dimethyl sulfoxide); “soluble” in series [5] (dimethylformamide); “soluble” in series [5] (dioxane); “slightly soluble” in series [5] (ethanol); “slightly soluble” in series [5] (ethyl acetate). The solubility entry in series [5] (methanol) is “slightly soluble”; in series [5] (n-hexane) it was “insoluble”; in series [5] (water), “insoluble”. Besides, the “susceptibility of Gram-negative organisms” value in series [6] is listed as “a little less susceptible”. The “activity against Gram-positive aerobic bacteria” value in series [7] is reported as “intensely potent activity”. For the same molecule, the toxicity result in series [8] was “did not show any toxicity”.
Regarding `COC1=C(C(=O)O)C(C)C23OC24c2cc(OC(C)=O)c5c(c2NC3C#C/C=C\C#CC14)C(=O)c1c(OC(C)=O)ccc(OC(C)=O)c1C5=O` (centres unmarked) [BU-3420T acetate], the “maximum T/C” value in series [3] is reported as 135%. The “solubility in organic solvents” value in series [5] (chloroform, methanol and ethanol, compared with BU-3420T) was “much improved solubility”. Besides, the “susceptibility of Gram-negative organisms” value in series [6] is “a little less susceptible”. In addition, in series [7], the “activity against Gram-positive aerobic bacteria” value is on record as “intensely potent activity”.
